From ChEMBL document CHEMBL1201862, “PubChem BioAssay data set” (2004)
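Where inhibition never reached the appropriate level, the endpoint shown equals the highest concentration tested. Otherwise, values were interpolated linearly from a five-concentration, 48-hour dose response in 96-well plates. Here, GI50 denotes the concentration required for 50% inhibition of growth.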 Activity calls are given as the source filed them. Cut-off read from the data, not from the text of the source: active = GI50 up to about 1.1 µM and inactive = higher.

How the values were obtained:
Assay in all cases: NCI anticancer screen, dose series, 48 h
786-0 = system: 786-0
A549 = system: A549
ACHN = system: ACHN
CAKI-1 = system: CAKI-1
CCRF-CEM = system: CCRF-CEM
COLO 205 = system: COLO 205
DLD-1 = system: DLD-1
DMS-114 = system: DMS-114
DMS-273 = system: DMS-273
EKVX = system: EKVX
HCC 2998 = system: HCC 2998
HCT-116 = system: HCT-116
HCT-15 = system: HCT-15
HL-60 = system: HL-60
HOP-62 = system: HOP-62
HT-29 = system: HT-29
IGROV-1 = system: IGROV-1
K562 = system: K562
KM-20L2 = system: KM-20L2
LOX IMVI = system: LOX IMVI
LXFL 529 = system: LXFL 529
M14 = system: M14
M19-MEL = system: M19-MEL
MOLT-4 = system: MOLT-4
Malme-3M = system: Malme-3M
NCI-H226 = system: NCI-H226
NCI-H23 = system: NCI-H23
NCI-H460 = system: NCI-H460
NCI-H522 = system: NCI-H522
OVCAR-3 = system: OVCAR-3
OVCAR-5 = system: OVCAR-5
OVCAR-8 = system: OVCAR-8
RPMI-8226 = system: RPMI-8226
RXF 393 = system: RXF 393
SF-268 = system: SF-268
SF-295 = system: SF-295
SF-539 = system: SF-539
SK-MEL-28 = system: SK-MEL-28
SK-MEL-2 = system: SK-MEL-2
SK-MEL-5 = system: SK-MEL-5
SK-OV-3 = system: SK-OV-3
SN12C = system: SN12C
SNB-19 = system: SNB-19
SNB-75 = system: SNB-75
SNB-78 = system: SNB-78
SR = system: SR
SW-620 = system: SW-620
TK-10 = system: TK-10
U-251 = system: U-251
UACC-257 = system: UACC-257
UACC-62 = system: UACC-62
UO-31 = system: UO-31

CCOC1c2cc(C(C)C)c(O)c(O)c2[C@@]23CCCC(C)(C)C2C1OC3=O (some centres not stated)
GI50 (786-0): > 100 µM (inactive)
GI50 (A549): 82.4 µM (inactive)
GI50 (ACHN): 78 µM (inactive)
GI50 (CAKI-1): > 100 µM (inactive)
GI50 (CCRF-CEM): 47.4 µM (inactive)
GI50 (COLO 205): > 100 µM (inactive)
GI50 (DLD-1): 61.7 µM (inactive)
GI50 (DMS-114): 62.4 µM (inactive)
GI50 (DMS-273): > 100 µM (inactive)
GI50 (EKVX): > 100 µM (inactive)
GI50 (HCC 2998): > 100 µM (inactive)
GI50 (HCT-116): > 100 µM (inactive)
GI50 (HCT-15): 91 µM
GI50 (HL-60): 93.1 µM (inactive)
GI50 (HOP-62): > 100 µM (inactive)
GI50 (HT-29): > 100 µM (inactive)
GI50 (IGROV-1): > 100 µM (inactive)
GI50 (K562): > 100 µM (inactive)
GI50 (KM-20L2): > 100 µM (inactive)
GI50 (LOX IMVI): > 100 µM (inactive)
GI50 (LXFL 529): > 100 µM (inactive)
GI50 (M14): > 100 µM (inactive)
GI50 (M19-MEL): > 100 µM (inactive)
GI50 (MOLT-4): 50 µM (inactive)
GI50 (Malme-3M): > 100 µM (inactive)
GI50 (NCI-H226): > 100 µM (inactive)
GI50 (NCI-H23): > 100 µM (inactive)
GI50 (NCI-H460): > 100 µM (inactive)
GI50 (NCI-H522): 30.6 µM (inactive)
GI50 (OVCAR-3): 84.5 µM (inactive)
GI50 (OVCAR-5): > 100 µM (inactive)
GI50 (OVCAR-8): > 100 µM (inactive)
GI50 (RPMI-8226): 40.6 µM (inactive)
GI50 (RXF 393): 30.3 µM (inactive)
GI50 (SF-268): > 100 µM (inactive)
GI50 (SF-295): > 100 µM (inactive)
GI50 (SF-539): > 100 µM (inactive)
GI50 (SK-MEL-28): > 100 µM (inactive)
GI50 (SK-MEL-2): > 100 µM (inactive)
GI50 (SK-MEL-5): 70.3 µM (inactive)
GI50 (SK-OV-3): > 100 µM (inactive)
GI50 (SN12C): 94 µM (inactive)
GI50 (SNB-19): > 100 µM (inactive)
GI50 (SNB-75): 47.8 µM (inactive)
GI50 (SNB-78): > 100 µM (inactive)
GI50 (SR): 61.4 µM (inactive)
GI50 (SW-620): > 100 µM (inactive)
GI50 (TK-10): > 100 µM (inactive)
GI50 (U-251): > 100 µM (inactive)
GI50 (UACC-257): > 100 µM (inactive)
GI50 (UACC-62): 83.2 µM (inactive)
GI50 (UO-31): 35.8 µM (inactive)
